Measured values published in US9901573B2, “Compositions, methods, and kits for regulating energy metabolism” (NuSirt Sciences, Inc., priority 2012, dated 2018).

Tests used:
Assay type in all cases: cell-based
C2C12 myotubes [1] = experiment: Fatty acid oxidation (O2 consumption response to palmitate) in myotubes; conditions: FIG. 4/5, 24 hours, leucine, valine, isoleucine 0.5 mM, B6 100 nM as pyridoxal phosphate, vs control
Experimental: Cell Culture: C2C12 and 3T3-L1 preadipocytes (American Type Culture Collection) were plated at a density of 8000 cells/cm^2 (10 cm^2 dish) and grown in Dulbecco's modified eagle's medium (DMEM) containing 10% fetal bovine serum (FBS), and antibiotics (growth medium) at 37° C. in 5% CO2. Confluent 3T3-L1 preadipocytes were induced to differentiate with a standard differentiation medium consisting of DMEM medium supplemented with 10% FBS, 250 nM dexamethasone, 0.5 mM 3-Isobutyl-1-methylxanthine (IBMX) and 1% penicillin-streptomycin. Preadipocytes were maintained in this differentiation medium for 3 days and subsequently cultured in growth medium. Cultures were re-fed every 2-3 days to allow >90% cells to reach fully differentiation before conducting chemical treatment. For differentiation of C2C12 cells, cells were grown to 100% confluence, transferred to differentiation medium (DMEM with 2% horse serum and 1% penicillin-streptomycin), and fed with fresh differentiation medium every day until myotubes were fully formed (3 days). Fatty acid oxidation: Cellular oxygen consumption was measured using a Seahorse Bioscience XF24 analyzer (Seahorse Bioscience, Billerica, Mass.) in 24-well plates at 37° C., as described by Feige et al (1) with slight modifications. Cells were seeded at 40,000 cells per well, differentiated as described above, treated for 24 hours with the indicated treatments, washed twice with non-buffered carbonate-free pH 7.4 low glucose (2.5 mM) DMEM containing carnitine (0.5 mM), equilibrated with 550 μL of the same media in a non-CO2 incubator for 45 minutes, and then inserted into the instrument for 15 minutes of further equilibration, followed by O2 consumption measurement. Three successive baseline measurements at five-minute intervals were taken prior to injection of palmitate (200 μM final concentration). Four successive 5-minute measurements of O2 consumption were then conducted, followed by 10 minute re-equilibration and another 3-4 5-minute measurements. This measurement pattern was then repeated over a 4-6 hour period. Data for each sample were normalized to the pre-palmitate injection baseline for that sample and expressed as % change from that baseline. […] The area under of the curve of O2 consumption change from baseline for each sample was then calculated and used for subsequent analysis.

Phospho-AMPKα (Thr172) = Phospho-AMPKα (Thr172) Western blot in myotubes; conditions: C2C12 myotubes, FIG. 11
Experimental: (§1) Cell Culture: C2C12 and 3T3-L1 preadipocytes (American Type Culture Collection) were plated at a density of 8000 cells/cm^2 (10 cm^2 dish) and grown in Dulbecco's modified eagle's medium (DMEM) containing 10% fetal bovine serum (FBS), and antibiotics (growth medium) at 37° C. in 5% CO2. Confluent 3T3-L1 preadipocytes were induced to differentiate with a standard differentiation medium consisting of DMEM medium supplemented with 10% FBS, 250 nM dexamethasone, 0.5 mM 3-Isobutyl-1-methylxanthine (IBMX) and 1% penicillin-streptomycin. Preadipocytes were maintained in this differentiation medium for 3 days and subsequently cultured in growth medium. Cultures were re-fed every 2-3 days to allow >90% cells to reach fully differentiation before conducting chemical treatment. For differentiation of C2C12 cells, cells were grown to 100% confluence, transferred to differentiation medium (DMEM with 2% horse serum and 1% penicillin-streptomycin), and fed with fresh differentiation medium every day until myotubes were fully formed (3 days).
Western blot: The Phospho-AMPKα (Thr172)- and Sirt1 (mouse specific)-antibody was obtained from Cell Signaling (Danvers, Mass.). C2C12 myotubes were treated as indicated in results and the cellular fractions were prepared using standard methods. Protein was measured by BCA kit (Thermo Scientific). […] Visualization and chemiluminescent detection was conducted using BioRad ChemiDoc instrumentation and software (Bio-Rad Laboratories, Hercules, Calif.) and band intensity was assessed using Image Lab 4.0 (Bio-Rad Laboratories, Hercules, Calif.), with correction for background and loading controls. P-AMPK was detected at 61-66 kDA and Sirt1 was detected at 104-115 kDA.

C2C12 myotubes [2] = experiment: Mitochondrial biogenesis (mitochondrial mass, NAO probe); conditions: FIG. 13
Experimental: as §1, with “days). Mitochondrial biogenesis: Mitochondrial biogenesis was assessed as change in mitochondrial mass, as previously described (2). The mitochondrial probe NAO (Invitrogen, Carlsbad, Calif.) was used to analyze mitochondrial mass by fluorescence (excitation 485 nm and emission 520 nm) and quantitative data was obtained with a fluorescence microplate reader (Synergy HT, BioTek Instruments, Winooski, Vt.). The intensity of fluorescence was expressed as arbitrary units per μg protein and normalized to control values within each assay.” for “days).”

In the case of `CC(C)C[C@H](N)C(=O)O` [Leucine, leucine], the “increase in fatty acid oxidation” value (C2C12 myotubes [1]) is reported as 73%, the “AMPK activation (Phosphorylated AMPK Thr172), increase” value (Phospho-AMPKα (Thr172)) is reported as “Neither treatment with leucine, valine, nor B6 alone exerted any significant effect” and the “increase in mitochondrial biogenesis (mitochondrial biomass)” value (C2C12 myotubes [2]) is reported as “about 15%”.
